Experimental data: US6864285B1, “Covalent derivatives of alkanolamides of monocarboxylic and dicarboxylic acids functionally active on the CB2 cannabinoid receptor” (Innovet Italia S.r.l., priority 1999, dated 2005)
Values after ≈ are worked out from the molar mass of the structure shown.

Columns and labels:
[1] = Lipid/water partition parameter RM from thin-film chromatography on silica gel; type: physicochemical; settings: for ΔRM solvent 1 / RM solvent 1 / RF solvent 1: Solvent 1: 100% ethyl acetate; for ΔRM solvent 1 / ΔRM solvent 2: RM of derivative minus RM of corresponding alkanolamide; for RM solvent 1 / RM solvent 2: RM=log (1/Rf−1); for RF solvent 1 / RF solvent 2: silica gel; for ΔRM solvent 2 / RM solvent 2 / RF solvent 2: Solvent 2: heptane:isopropanol:ethyl acetate:H2O 40:20:50:2
Protocol: The chemical and physical characteristics of the derivatives according to the invention were evaluated by quantitative measurement of the lipid/water partition parameter.
A useful parameter for evaluating the properties of a compound in relation to its possible absorption is in fact constituted by the coefficient of partition between the lipid phase and the aqueous phase, which is considered to be an expression of its lipophilicity and its degree of hydrophilicity. […] For the purpose of evaluating the characteristics of the derivatives of the invention, the partition parameter RM between the lipid and the aqueous phase, extrapolated from thin-film partition chromatography, was calculated; this parameter is commonly used to evaluate the lipophilic characteristics of compounds (Tomlinson E. J. Chromatogr. 1975, 113, 1) and is commonly used, for example, for local anaesthetics, in which a correlation has been shown between this parameter and biological activity (Bachrata M. et al. J. Chromatogr. 1979, 171, 29-36).
The partition parameter RM between the lipid phase and the aqueous phase was calculated both for the derivatives and for the non-substituted alkanolamides, from the Rf value obtained by thin-film chromatography on silica gel (particles of […], mean porosity 60 Å, thickness 0.25 mm on glass plate) in accordance with the formula: RM=log (1/Rf−1) and the ΔRM was obtained from the difference between the RM coefficients of the derivative and of the corresponding alkanolamide.

[2] = Solubility in water and in organic solvents (chemical and physical characteristics); settings: for solubility in water: in words
[3] = physchem
[4] = ethanol, organic solvent or mixture
[5] = ethyl acetate, organic solvent or mixture
[6] = n-octanol, organic solvent or mixture

solubility [3, 4] [µg/mL] | solubility [3, 5] [µg/mL] | solubility [3, 6] [µg/mL] | solubility ([3]; DMSO, organic solvent or mixture) [µg/mL] | solubility ([3]; water) [µg/mL] | SMILES | ΔRM solvent 1 [1] | RM solvent 1 [1] | RF solvent 1 [1] | ΔRM solvent 2 [1] | RM solvent 2 [1] | RF solvent 2 [1] | solubility in organic solvents: ethanol [2] | solubility in water [2] | solubility in organic solvents: ethyl acetate, hot ([2]; ethyl acetate, hot) [mg/ml in ethyl] | solubility in organic solvents: n-octanol, hot ([2]; n-octanol, hot) [mg/ml in ethyl] | solubility in organic solvents: ethyl acetate ([2]; ethyl acetate) [mg/ml in ethyl] | solubility in organic solvents: n-octanol ([2]; n-octanol) [mg/ml in ethyl]
– | – | – | – | – | CCCCCCCCCCCCCCCC(=O)NCCOC1CCCO1 (centres unmarked) [Example 9, tetrahydrofuranyl ether of N-(2-hydroxyethyl) hexadecanamide] | −0.630 | 0.158 | 0.41 | −0.247 | −0.213 | 0.62 | 10 mg/ml in ethanol | slightly soluble | – | – | – | –
– | – | – | – | – | CCCCCCCC/C=C\CCCCCCCC(=O)NCCOC(=O)OCC [Example 13, N-[2-(ethoxycarbonyl)oxyethyl] oleoylamide] | −0.984 | −0.231 | 0.63 | −0.365 | −0.347 | 0.69 | 10 mg/ml in ethanol, | slightly soluble | – | – | – | –
– | – | – | – | – | CCCCCCCCCCCCCCCC(=O)NCCOC(=O)NCc1ccccc1 [Example 5] | −0.736 | 0.052 | 0.47 | −0.304 | −0.269 | 0.65 | – | slightly soluble | 10 | 10 | – | –
– | – | – | – | – | O=C(CCCCCCCC(=O)NCCOC1CCCO1)NCCOC1CCCO1 (centres unmarked) [Example 10, tetrahydrofuranyl ether of N,N^1-bis(2-hydroxyethyl) nonandiamide] | −0.424 | −0.035 | 0.52 | −0.584 | 0.105 | 0.44 | 10 mg/ml in ethanol | – | – | – | – | –
– | – | – | – | – | O=C(CCCCCCCC(=O)NCCOC1CCCCO1)NCCOC1CCCCO1 (centres unmarked) [Example 12, tetrahydropyranyl ether of N,N^1-bis(2-hydroxyethyl) nonandiamide] | −0.494 | −0.105 | 0.56 | −0.706 | −0.017 | 0.51 | 10 mg/ml in ethanol | – | – | – | – | –
10000 (≈ 25.9 mM) | 10000 (≈ 25.9 mM) | 10000 (≈ 25.9 mM) | – | – | CCCCCCCCCCCCCCCC(=O)NCCCOC(=O)OCC [Example 3, N-[3-(ethoxycarbonyl)oxypropyl]hexadecanamide] | −1.020 | −0.194 | 0.61 | −0.397 | −0.327 | 0.68 | – | slightly soluble | – | – | – | –
10000 | – | – | 10000 | 10000 | CCCCCCCCCCCCCCCC(=O)NCCOC(=O)OCCN1CCCCC1.CS(=O)(=O)O [Example 8, N-[2-[(2-piperidinoethoxy)carbonyl]oxyethyl] hexadecanamide methane sulphonate] | – | – | – | – | – | – | – | – | – | – | – | –
– | – | – | – | – | CCCCCCCCCCCCCCCC(=O)NCCOC1CCCCO1 (centres unmarked) [Example 11, tetrahydropyranyl ether of N-(2-hydroxyethyl) hexadecanamide] | 0.666 | 0.122 | 0.43 | −0.304 | −0.269 | 0.65 | – | slightly soluble | – | – | 10 | 10
10000 (≈ 25 mM) | 1000 (≈ 2.5 mM) | 10000 (≈ 25 mM) | – | – | CCCCCCCCCCCCCCCC(=O)NCCOC(=O)OCC(C)C [Example 2, N-[2-(isobutyloxycarbonyl)oxyethyl] hexadecanamide] | −1.076 | −0.288 | 0.66 | −0.467 | −0.432 | 0.73 | – | slightly soluble | – | – | – | –
